# Laboratory results reported in patent publication US7414068B2, “Benzopyran derivatives substituted with secondary amines including tetrazole, method for the preparation thereof and pharmaceutical compositions containing them” (Dongbu Hannong Chemical Co., Ltd., priority 2002, dated 2008).
# How the values were obtained:
# cortical neuron cells = assay: Protective effect on iron-induced neuronal cell injury (LDH release); format: cell-based; conditions: FeSO4 50 μM; for protective effect on neuron cell: Inhibition (%, 30 μM compound addition): LDH reduction vs control; for IC50: LDH
# Protocol: From the brains of 17˜18 day-old embryos, cortical neuron cells were isolated and then, cultured at 37° C. for 7˜9 days in a 5% CO2 incubator. The said cortical cell cultures were washed twice with MEM (Minimum essential medium) to reduce the serum level to 0.2%. […] Then, the compound of the said concentration was pre-treated for 30 min, respectively. For the experiment, test compound was dissolved in DMSO and diluted in a medium. At this time, the final concentration of DMSO was not allowed to exceed 0.1%. For control group, only vehicle was applied.
# After the said pre-treatment, FeSO4 was added to the medium for a final concentration to be 50 μM. The medium was cultured in CO2 incubator for 24 hours. During the incubation, lactate dehydrogenase (LDH) was released by iron. The serum level of lactate dehydrogenase released into the medium was measured to assess necrosis of neuronal cell by the oxidative toxicity of iron. The protective effect on neuron cells of the test compounds was evaluated by calculating the LDH reduction rate of treatment-group compared with that of the control group.
# [1] = Acute oral toxicity test in rats; conditions: SD, rat, in vivo, single oral dose, suspended in 0.5% methyl cellulose, read-out: lethal dose (LD50) for oral administration
# Protocol: In this test, six-week old SPF SD rats were used with two rats assigned to each group. Each group was consisted of two rats. The compounds prepared in example 1, 7, 11, 17, 22, 24, 26, 28, 30, 32, 34, 42, 52, 54, 55, 56, 57, 59, 60, 61, 70, 75, 77, 79, 81, 83, 85, and 89 were suspended in 0.5% methyl cellulose, respectively. […] Also, hematological test and biochemical analysis were accomplished. After sacrificing the animals, autopsy was performed for macroscopic observations of the organs and tissues. As a result, there was no significant changes in clinical symptoms, body weight and mortalities. Also in hematology, serum chemistry parameters, macroscopic observation and drug-related changes were not observed.
# isolated rat aorta = assay: Vasodilating effect on blood vessel excised from rats (methoxamine-constricted aorta); conditions: isolated rat aorta constricted with methoxamine (3 μM); read-out: Concentration for inhibition of constriction induced by methoxamine in rat arota (IC50)
# Text: Rats (350˜450 g, obtained from the Experimental Animal Team of the Korea Research Institute of Chemical Technology) were knocked to be unconscious by hitting the occipital region, sacrificed by cervical dislocation, and underwent thoracotomy. After being quickly removed, the thoracic aorta was deprived of the adipose tissue and cut into aortic rings of 3 mm width. The aorta was lightly rubbed with cotton club soaked in a modified Krebs Henseleit buffer (Physiological salt solution) to remove the inner epithelial layer therefrom. While being hung in an organ bath containing a physiological buffer, the vascular smooth muscle was allowed to equilibrate under a resting tension of 2 g and then, stand for 1 hour at 37° C. for stabilization, supplying a carbogen consisting of 95% O2˜5% CO2.
# Thereafter, the vascular smooth muscle was constricted with 10^−5M phenylephrine and washed several times with physiological saline solution. The said procedure was repeated again to ensure the stable reactivity of vascular smooth muscle to repetitive constriction/relaxation.
# Thereafter, 3×10^−6 M methoxamine was applied to induce an intensive constriction in the vascular smooth muscle. When the vasoconstriction induced by the methoxamine was reached and maintained to a maximum, test compounds and control material was cumulatively added to the organ bath in concentration of 1, 3, 10 and 30 μM, respectively, to examine the vasodilating effect. Cromakalim, BMS-180448 (the compound of formula 4) and BMS-191095 (the compound of formula 5), known to be the first generation KATP opener with potent vasodilating effect were used as control materials.
# The change rate of constriction by the addition of the drugs compared to the maximal constriction induced by methoxamine was calculated to plot a concentration-relaxation response curve. Through a least linear regression analysis, IC50 that the drug concentration at which the vascular tissue is relaxed to 50% extent of the maximal constriction, was obtained for each drug.
# [2] = system: isolated ischemic rat heart; assay: Cardioprotective effect in ischemic heart models of rats (Langendorff); conditions: 10 μM
# Protocol: Male rats (300˜450 g, obtained form the experimental animal team of the Korea Research Institute of Chemical Technology) were anaesthetized by the intra-peritoneal injection of sodium pentobarbital at a dose of 100 mg/kg. Heparin (1,000 U/kg) was injected to the tail vein and then the heart was enucleated. Particularly, cannula (PE 240) was inserted to the organ. Rats were mechanically ventilated with a rodent ventilator, in situ aorta cannula was inserted into their aorta. In retorograde perfusion, their hearts were enucleated, then just hung onto Langendorff Apparatus. Tissue attached at the heart was removed. Heart was perfused in oxygenated modified Krebs-Henseleit bicarbonate buffer (composition<mM/L>116 NaCl, 4.7 KCl, 1.1 MgSO4, 1.17 KH2PO4, 24.9 NaHCO3, 2.52 CaCl2, 8.32 Glucose, 2.0 Pyruvate) at a constant perfusion pressure (85 mmHg). A metal cannula attached to latex balloon filled with solvent (ethanol: water=1:1 (v/v)) was placed in the left ventricle through pulmonary vein and connected to a isovolumetric pressure transducer (H.S.E., Germany) for measurement of left ventricular pressure (LVP). The hearts were allowed to equilibrate for 15 min, at which time left ventricular end-diastolic pressure (EDP) was adjusted to 5 mmHg and this balloon volume was maintained throughout the experiment.
# Baseline cardiac contractile function, heart rate (HR), and coronary flow (CF) were measured. Cardiac contractile function was calculated by […], yielding LVDP (left ventricular developed pressure). Double product RPP (rate-pressure product) (DP), another important parameter for indirectly assessing cardiac performance in Langendorff heart impossible to measure cardiac output was calculated by multiplying HR by LVDP.
# Throughout the experiment, total coronary blood flow was measured by the use of coronary flow probe (diameter: 1.0 mm) installed in aortic cannula with electromagnetic flowmeter. Temperature of heart was steadily maintained by immersing the heart at 37° C. in physiological saline solution to which 95% O2/5% CO2 was constantly supplied. After stabilization for 15 min, the hearts were pre-treated for 10 min in vehicle (0.04% DMSO) or mixture containing the compound of the present invention or control material. Thereafter, cardiac contractile function, HR and CF were repeatedly measured. Global ischemia was induced by completely shutting off the perfusate for 30 min. Severity of ischemia was determined as the time to contracture (TTC, min) during global ischemia in which the first 5 mmHg increase in EDP was observed. Then, the hearts were reperfused and, 30 min later, contractile functions (LVDP, HR and CF) was repeatedly measured. After reperfusion was accomplished for 30 min, LDH (lactate dehydrogenase) was measured as a sensitive index for loss of cell viability with a kit.
# brain homogenate = assay: Inhibitory effect against lipid peroxidation by iron (MDA quantification); format: biochemical, rat; conditions: 100 μM compound, FeCl2 400 μM, 37° C. 30 min
# Protocol: The rat brain was homogenized in a Krebs buffer (15 mM HEPES, 10 mM glucose, 140 mM NaCl, 3.6 mM KCl, 1.5 mM CaCl2, 1.4 mM KH2PO4, 0.7 mM MgCl2, PH 7.4) and the supernatant separated by centrifugation at 12,000 rpm for 10 min was used for further experiments. FeCl2 was added for the final concentration to be 400 μM. Then the brain homogenate was allowed to stand at 37° C. for 30 min for the facilitation of oxidation. Each of the test compounds was added at a concentration of 100 μM. For control group, only vehicle was applied.
# Iron facilitates the oxidation of the said brain homogenate to produce malondialdehyde (MDA), lipid peroxidation product. Thus, the lipid peroxidation was determined by MDA quantification. The inhibitory effect against lipid peroxidation of the test compounds was evaluated by calculating MDA reduction rate of the test compounds compared with that of the control group.
# Typically, the MDA quantification is achieved by reacting samples with 2-thiobarbituric acid (TBA) and measuring the absorbance at 530 nm. However, this method is unsuitable to treat samples on a large scale because of a boiling step. Thus, in this experiment, N-methyl-2-phenylindole was used instead of TBA.
SMILES,"protective effect on neuron cell: Inhibition (%, 30 μM compound addition) (cortical neuron cells; 24 hours)","IC50 (cortical neuron cells; Cortical neurone, 24 h)",LD50 [1],IC50 (isolated rat aorta),EDP (mmHg) ([2]; after 30 min global ischemia and reperfusion),LDH (u/g) ([2]; reperfusion LDH release),"LVDP X HR (%) ([2]; reperfusion, % of pre-treatment DP)",TTC ([2]; time to contracture during global ischemia),"inhibitory effect against lipid peroxidation induced by iron (%, 100 μM) (brain homogenate)",IC50 (cortical neuron cells; 24 hours)
"COC(OC)[C@@]1(C)Oc2ccc([N+](=O)[O-])cc2[C@@H](N(Cc2nnn(C)n2)c2ccc(Cl)cc2)[C@@H]1O [Example 1, (2S,3S,4R)-6-nitro-4-[N-(4-chlorophenyl)-N-(2-methyl-2H-tetrazol-5-ylmethyl)amino]-3-hydroxy-2-methyl-2-dimethoxymethyl-3,4-dihydro-2H-1-benzopyran]",71%,18100 nM,> 2000 mg/kg,7140 nM,29.3 mmHg,15.2 u/g,46.8%,24.8 min,,
"COC(OC)[C@@]1(C)Oc2ccc(N)cc2[C@H](N(Cc2nnn(C)n2)c2ccc(Cl)cc2C)[C@H]1O [Example 42, (2S,3R,4S)-6-amino-4-[N-(2-methyl-4-chlorophenyl)-N-(2-methyl-2H-tetrazol-5-ylmethyl)amino]-3-hydroxy-2-methyl-2-dimethoxymethyl-3,4-dihydro-2H-1-benzopyran]",103%,2600 nM,> 2000 mg/kg,,,,,,85%,
"COC(OC)[C@@]1(C)Oc2ccc(N)cc2[C@H](N(Cc2nnn(C)n2)c2ccccc2C(C)C)[C@H]1O [Example 52, (2S,3R,4S)-6-amino-4-[N-(2-isopropylphenyl)-N-(2-methyl-2H-tetrazol-5-ylmethyl)amino]-3-hydroxy-2-methyl-2-dimethoxymethyl-3,4-dihydro-2H-1-benzopyran]",91%,3000 nM,> 2000 mg/kg,,,,,,88%,
"CCOC(=O)c1ccc(N(Cc2nnn(C)n2)[C@H]2c3cc(N)ccc3O[C@](C)(C(OC)OC)[C@@H]2O)cc1 [Example 54, (2S,3R,4S)-6-amino-4-[N-(4-ethoxycarbonylphenyl)-N-(2-methyl-2H-tetrazol-5-ylmethyl)amino]-3-hydroxy-2-methyl-2-dimethoxymethyl-3,4-dihydro-2H-1-benzopyran]",98%,< 2000 nM,> 2000 mg/kg,,,,,,87%,1500 nM
"COC(OC)[C@@]1(C)Oc2ccc(N)cc2[C@H](N(Cc2nnn(C)n2)c2ccc(F)cc2)[C@H]1O [Example 56, (2S,3R,4S)-6-amino-4-[N-(4-fluorophenyl)-N-(2-methyl-2H-tetrazol-5-ylmethyl)amino]-3-hydroxy-2-methyl-2-dimethoxymethyl-3,4-dihydro-2H-1-benzopyran]",100%,5300 nM,> 2000 mg/kg,,,,,,76%,
COC(=O)c1cccc(N(Cc2nnn(C)n2)[C@H]2c3cc(N)ccc3O[C@](C)(C(OC)OC)[C@@H]2O)c1 [Example 59],77%,< 2000 nM,> 2000 mg/kg,,,,,,70%,1800 nM
"COC(OC)[C@@]1(C)Oc2ccc([N+](=O)[O-])cc2[C@H](N(Cc2nnn(C)n2)c2ccc(O)cc2C)[C@H]1O [Example 64, (2S,3R,4S)-6-nitro-4-[N-(2-methyl-4-hydroxyphenyl)-N-(2-methyl-2H-tetrazol-5-ylmethyl)amino]-3-hydroxy-2-methyl-2-dimethoxymethyl-3,4-dihydro-2H-1-benzopyran]",,,,,,,,,79%,
"COC(OC)[C@@]1(C)Oc2ccc(N)cc2[C@@H](N(Cc2nnn(C)n2)c2ccc(Cl)cc2)[C@@H]1OC(C)=O [Example 89, (2S,3S,4R)-6-amino-4-[N-(4-chlorophenyl)-N-(2-methyl-2H-tetrazol-5-ylmethyl)amino]-3-acetoxy-2-methyl-2-dimethoxymethyl-3,4-dihydro-2H-1-benzopyran]",,,> 2000 mg/kg,,,,,,81%,
